pEC50: −log10 of the molar value.
Experiments:
[1] = target: T1, mouse PXR (Mus musculus, UniProt O54915); experiment: GAL-mouse PXR luciferase reporter gene assay in transfected CV-1 cells; assay type: cell-based; conditions: for fold activation of GAL-mouse PXR / activation of GAL-mouse PXR (in words): 10 μM; for activation of GAL-mouse PXR (in words): CV-1 cells, FIG. 3(a), FIG. 8(a)
T1 sequence (O54915 104-431): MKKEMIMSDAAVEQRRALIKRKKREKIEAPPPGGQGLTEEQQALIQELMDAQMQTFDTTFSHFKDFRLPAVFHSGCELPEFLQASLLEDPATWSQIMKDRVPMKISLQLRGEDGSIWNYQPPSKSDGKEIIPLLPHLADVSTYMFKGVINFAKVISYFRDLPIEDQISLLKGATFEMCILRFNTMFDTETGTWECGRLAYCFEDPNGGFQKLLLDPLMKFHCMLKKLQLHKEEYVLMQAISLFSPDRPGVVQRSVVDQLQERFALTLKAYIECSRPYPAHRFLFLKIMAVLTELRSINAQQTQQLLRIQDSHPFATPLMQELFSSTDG
Protocol: (§1) CV-1 cells were transiently transfected with a GAL-mouse PXR expression vector, a GAL4 reporter construct, and a β-galactosidase vector as an internal control. Where noted, the bile acid transporter NTCP was added to the transfection to promote the transport of membrane-impermeable bile acids. Transfected cells were exposed to the indicated compounds (10 μM each), and fold activation was determined using luciferase and β-galactosidase enzyme activity assays. […] The transfected CV-1 cells were treated with multiple concentrations of each sterol. Error bars in this figure and subsequent figures represent the standard error of the mean (SEM) from representative experiments.
It is questioned whether β-cholestane-3α, 7α, 12α-triol (Triol) levels were elevated in whole liver extracts from CYP27 −/− mice. To show the level of 5β-cholestane-3α, 7α, 12α-triol in mouse liver extract, wild-type or CYP27 −/−mouse liver tissue (0.5 g) was extracted with 7.5 ml of ethyl acetate/methanol (2:1, vol/vol) along with 5β-cholestane-3β,5α,6β-triol (25 μg) as an internal control for extraction efficiency. […] The extraction was repeated three times, and the organic fraction was pooled and evaporated. To remove the vast excess of cholesterol that interferes with subsequent gas chromatography-mass spectroscopy analysis, the evaporated residue was dissolved in 0.5 ml of chloroform/acetone (35:25, vol/vol) and applied to a Bond Elut SI cartridge (Varian, 500 mg). Cholesterol was removed by washing with 6 ml of chloroform/acetone (35:25, vol/vol), and sterols were eluted with 7 ml of chloroform/acetone/methanol (35:25:20, vol/vol/vol). The sterol fraction was evaporated and dissolved in acetonitrile, and a portion was silylated with N,O-bis(trimethylsilyl)-trifluoroacetamide containing 1% trimethylchlorosilane (Pierce). The silylated material was analyzed by using a Shimadzu model GC-17A gas chromatograph with a QP5000 mass spectral detector and a Hewlett-Packard Ultra 2 (cross-linked-siloxane) column. The injector port was kept at 250° C., interface temperature was kept at 280° C., and oven temperature was kept at 50° C. followed by a gradient of 30° C. min^−1 up to 300° C. The electron impact ionization source was at 70 eV. 5β-cholestane-3α, 7α, 12α-triol levels were determined by comparison to a standard curve. For transfection studies, the sterol fraction was dissolved in DMSO and added to the cell-culture media. containing DMEM with 10% delipidated FBS.

[2] = tested on: CYP3A4; conditions: reported by Furster & Wikvall 1999; read-out: Michaelis constant (Km) as a CYP3A4 substrate; cited from earlier work
[3] = target: T2, full-length mouse PXR (Mus musculus, UniProt O54915); experiment: Full-length mouse PXR reporter assay with rat cyp3a regulatory element in CV-1 cells; assay type: cell-based; conditions: 10 μM, FIG. 3(b)
T2 sequence (O54915 1-431): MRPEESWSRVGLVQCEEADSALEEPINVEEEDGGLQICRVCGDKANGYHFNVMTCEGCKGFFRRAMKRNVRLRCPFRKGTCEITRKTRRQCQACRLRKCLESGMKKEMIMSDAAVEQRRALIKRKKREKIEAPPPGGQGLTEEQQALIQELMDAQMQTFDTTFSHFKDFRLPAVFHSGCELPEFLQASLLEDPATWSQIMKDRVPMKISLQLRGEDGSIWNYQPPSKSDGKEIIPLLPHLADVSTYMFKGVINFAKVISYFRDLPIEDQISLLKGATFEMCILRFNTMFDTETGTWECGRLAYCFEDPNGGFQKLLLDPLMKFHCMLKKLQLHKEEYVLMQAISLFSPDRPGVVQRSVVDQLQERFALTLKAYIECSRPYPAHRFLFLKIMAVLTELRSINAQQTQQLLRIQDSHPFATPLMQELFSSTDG
Protocol: as §1, with “assays. PCN refers to pregnenolone-16α-carbonitrile which is an effective agonist to mouse PXR.” for “assays.”, “experiments. In some cases, the error bars are not visible because they are negligible relative to the scale of the figure” for “experiments.”
To further confirm that 5β-cholestane-3α, 7α, 12α-triol and 5β-cholestan-3α, 7α, 12α, 25-tetrol activate mouse PXR, the effect of these compounds on full-length mouse PXR was examined using a reporter construct containing a regulatory element from the rat cyp3a gene that binds to the DNA binding domain of mouse PXR. Blumberg et al., SXR, a novel steroid and xenobioticsensing nuclear receptor, Gene & Dev. 12: 3195-3205 (1998).

[4] = target: T3, human PXR ligand binding domain (Homo sapiens, UniProt O75469); experiment: In vitro ligand displacement assay with [3H]SR12813; conditions: 37.5 nM [3H]SR12813; 5 μM hyperforin, 30 μM Triol, 30 μM Tetrol; FIG. 4
T3 sequence (O75469 107-434): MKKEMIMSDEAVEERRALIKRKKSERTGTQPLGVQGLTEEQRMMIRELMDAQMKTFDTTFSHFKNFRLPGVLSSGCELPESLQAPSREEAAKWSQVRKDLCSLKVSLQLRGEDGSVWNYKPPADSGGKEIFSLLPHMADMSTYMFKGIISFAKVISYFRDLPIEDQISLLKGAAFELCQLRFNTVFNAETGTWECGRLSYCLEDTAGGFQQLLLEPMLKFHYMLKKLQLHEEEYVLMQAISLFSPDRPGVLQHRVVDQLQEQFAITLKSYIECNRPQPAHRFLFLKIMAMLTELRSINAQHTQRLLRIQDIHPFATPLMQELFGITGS
Protocol: The amount of [^3H]SR12813 associated with human PXR is expressed in cpm.
To determine whether a molecule or compound interacts directly with a PXR or is a PXR ligand, an in vitro ligand displacement assay is commonly used. […] In the ligand displacement assay, the ligand binding domain of a PXR is synthesized or expressed and purified. A known PXR ligand is radio-labeled and incubated with the purified ligand binding domain of the PXR. A molecule or compound suspected to be a PXR ligand is then added into the incubated mixture. Radioactivity reading is taken using a scintillation counter. If the molecule or compound competes with the known PXR ligand for the ligand binding domain of the PXR, the molecule or compound is expected to displace some of the radio-labeled known PXR agonist and reduce the radioactivity reading. Accordingly, the reduction of radioactivity reading indicates whether the molecule or compound is a PXR ligand and the extent to which the molecule or compound competes with the known PXR ligand.
An in vitro ligand displacement assay was used to determine whether 5β-cholestane-3α, 7α, 12α-triol interacts directly with the ligand binding domain of PXR. Because radiolabeled [^3H]SR12813 are available for human PXR but not mouse PXR, human PXR was used to examine whether 5β-cholestane-3α, 7α, 12α-triol could compete for binding of human PXR to a tritiated SR12813. […]

[5] = tested on: CYP3A; conditions: cited from earlier work
[6] = tested on: mice; experiment: Tribromoethanol-induced sleep test; assay type: in vivo, mouse; conditions: i.p. 0.35 mg/g
From the text: Wild type and cyp27-null mice received an i.p. injection of tribromoethanol, and their individual sleep times are plotted. Wild type mice are represented by squares and CYP27-null mice (CYP27 −/−) are represented by circles. Wild type male, n=6; cyp27-1-male, n=5; Wild type female, n=6; cyp27-1-female, n=6. **, P<0.01; ***, P<0.001.
Because PXR is a master regulator of small-molecule clearance, continuous activation of PXR in CYP27-null mice should produce a physiologic state of enhanced resistance to endogenous and exogenous toxins. To test this in a physiological setting, mice received an i.p. injection of the anesthetic agent tribromoethanol (0.35 mg/g of body weight). Drug-induced anesthesia was measured until the animals had regained sufficient consciousness to fully right themselves. […] Thus, the tribromoethanol-induced sleep test provides a direct and quantitative measure of hepatic PXR activity in live animals. […] In female mice, the difference was even more significant: 35.8±1.6 min for CYP27-null mice compared with 49.6±2.0 min for WT (P<0.001). […] When 5β-cholestane-3α, 7α, 12α-triol itself is accumulating to pathological levels, the ability of this sterol to activate cyp3a11 (FIG. 5) becomes highly significant as CYP3A establishes an alternate or salvage pathway for the elimination of excess 5β-cholestane-3α, 7α, 12α-triol (FIG. 1). […]

C[C@H](CCCC(C)(C)O)[C@H]1CC[C@H]2[C@@H]3[C@H](O)C[C@@H]4C[C@H](O)CC[C@]4(C)[C@H]3C[C@H](O)[C@]12C [5β-cholestane-3α, 7α, 12α, 25-tetrol]
fold activation of GAL-mouse PXR [1]: 16 fold

CC(C)CCC[C@@H](C)[C@H]1CC[C@H]2[C@@H]3[C@H](O)C[C@@H]4C[C@H](O)CC[C@]4(C)[C@H]3C[C@H](O)[C@]12C [5β-cholestane-3α, 7α, 12α-triol]
pEC50 [1]: ≤ 5.52 | fold activation of GAL-mouse PXR [1]: 31 fold | Km [2]: 6 µM | activation of full-length mouse PXR (in words) [3]: activated full-length mouse PXR

CC(C)CCC[C@@H](C)[C@H]1CC[C@H]2[C@@H]3C[C@@H](O)[C@@]4(O)C[C@@H](O)CC[C@]4(C)[C@H]3CC[C@]12C [5β-cholestane-3β,5α,6β-triol]
activation of GAL-mouse PXR (in words) [1]: does not activate mouse PXR

CC(CCC[C@@H](C)[C@H]1CC[C@H]2[C@@H]3[C@H](O)C[C@@H]4C[C@H](O)CC[C@]4(C)[C@H]3C[C@H](O)[C@]12C)C(=O)O (stereo partly drawn) [5β-cholestanoic acid-3α,7α,12α-triol]
activation of GAL-mouse PXR (in words) [1]: failed to activate mouse PXR | displacement of [3H]SR12813 from human PXR (in words) [4]: failed to displace

COc1cc2c(cc1O)CCN[C@]21CS[C@@H]2c3c(OC(C)=O)c(C)c4c(c3[C@H](COC1=O)N1[C@@H]2[C@H]2c3c(cc(C)c(OC)c3O)C[C@@H]([C@@H]1O)N2C)OCO4 [ET-743, Ecteinascidin-743]
inhibition of the induction of CYP3A by SR12813 (in words) [5]: completely inhibits

C[C@H](CCC(=O)O)[C@H]1CC[C@H]2[C@@H]3[C@H](O)C[C@@H]4C[C@H](O)CC[C@]4(C)[C@H]3CC[C@]12C [chenodeoxycholic acid]
activation of GAL-mouse PXR (in words) [1]: failed to activate mouse PXR

OCC(Br)(Br)Br [tribromoethanol]
time to awakening after tribromoethanol (mean±SEM) ([6]; female CYP27-null mice): 35.8 ± 1.6 min | time to awakening after tribromoethanol (mean±SEM) ([6]; female WT mice): 49.6 ± 2.0 min | time to awakening after tribromoethanol (mean±SEM) ([6]; male CYP27-null mice): 30.6 ± 2.9 min | time to awakening after tribromoethanol (mean±SEM) ([6]; male WT mice): 42.2 ± 1.9 min

From patent publication US20040019027A1, “Method of treating cerebrotendinous xanthomatosis” (priority 2002, published 2004)
